Structures are written as SMILES.

The text below walks through data of patent publication US20220313620A1, “COMPOSITION FOR PREVENTING AND TREATING TAUOPATHIES” (SERVICIO ANDALUZ DE SALUD, priority 2019, published 2022).

In experiment [1] the test system is Cyclin Dependent Kinase 5 (CDK5). The experiment is described as follows: Hippocampal CDK5, p35 and p25 protein levels (western blot) after 10 days of oral drinking. Format: in vivo, Wistar rats. To be noted: oral by drinking 100 mg/Kg for 10 days, hippocampus, FIG. 8A. On the procedure:
Animal experimental procedures were carried out in accordance with the European Communities directive 2010/63/EU and Spanish legislation (Real Decreto 53/2013). The protocol was approved by the Research and approved by Ethics Committee for Animal Experiments of the University of Malaga, Spain. In accordance with the ARRIVE guidelines, all efforts were made to minimize animal suffering and to reduce the number of animals used per experimental group. Chronic drinking experiments on Wistar rats were performed on 20 male rats. All adult rats, ageing 2 months (≈300 g of body weight), were provided by Charles River Laboratories (Barcelona, Spain). The animals were housed individually under a standard 12 h light-dark cycle in a room with temperature and humidity control. Water and rat chow pellets were provided ad libitum throughout the course of the present study.
Caromax®-D-Pinitol (3-O-methyl-d-chiro-inositol, DPIN, 98% purity) and Caromax®-D-Chiro-inositol (cis-1,2,3-trans-3,5,6-cyclohexanehexol, DCI) were provided by Euronutra SL (Málaga, Spain). They were dissolved in water to orally daily administration by drinking and/or gavage at dose of 100 mg/Kg of body weight (BW) in a 1 ml/kg of BW volume to Zucker and Wistar rats for 4 weeks (28 days) and 10 days, respectively (FIG. 1). During the drinking treatments, the concentration of inositols in the water were updated considering the daily increase of BW of the rats and the possible loss of water by evaporation.
Brain extract. […]
Western Blot Analysis. […] Bands were quantified by densitometric analysis using ImageJ software (Rasband, WS, ImageJ, US National Institutes of Health, Bethesda, Md., USA). […] The results were expressed as the protein/α-Adaptin ratio or phosphorylated/total protein ratio and normalized to the control group (Y axis represents ‘fold mean of the control values’).
All data are expressed as mean±SEM. […]
For orientation: Immunoblotting shows a protein as a band on a membrane.

Experiment [2] in a line: Plasma glucose levels after acute oral gavage. Format: in vivo. The settings on record: oral 500 mg/kg, adult male Wistar rats, FIG. 3C. On the procedure: Experimental procedures with animals were carried out in strict accordance with the recommendations in the European Communities directive 2010/63/EU and Spanish legislation (Real Decreto 53/2013, BOE 34/11370-11421, 2013) regulating the care and use of laboratory animals. The protocol was approved by the Ethics Committee for Animal Experiments of the University of Malaga. All studies involving animals were reported in accordance with the ARRIVE guidelines for reporting experiments involving animals (Kilkenny, C., Browne, W. J., Cuthill, I. C., Emerson, M. & Altman, D. G. Improving Bioscience Research Reporting: The ARRIVE Guidelines for Reporting Animal Research. PLoS Biol 8, e1000412, https://doi.org/10.1371/journal.pbio.1000412 (2010). All efforts were made to minimize animal suffering and to reduce the number of animals used. The experiments were performed on 4-to-5-week-old male Wistar rats (Crl:Wl; Charles River Laboratories, Barcelona, Spain). The animals were under a standard 12 h light-dark cycle in a room with temperature and humidity control. All the rats were provided with water and commercially available rat standard pellet diet (STD) (3.02 kcal/g with 30 kcal % protein, 55 kcal % carbohydrates and 15 kcal % fat) ad libitum. […]

Consider `COC1[C@@H](O)[C@@H](O)C(O)[C@H](O)[C@H]1O` (stereo partly drawn) [DPIN, (1S,2S,4S,5R)-6-methoxycyclohexane-1,2,3,4,5-pentol], for which, in experiment [1], the “amount of p25” value is listed as “significantly decreased”, the “amount of p35 subunit” value was “significantly decreased” and the “total amount of CDK5” value is given as “does not vary”. The “glucose levels in plasma” value in experiment [2] is reported as “maintenance”.
